Assay results as given in patent US20260373119A1, “NOVEL COMPOUND, AND COMPOSITION FOR PREVENTING OR TREATING HER2-POSITIVE CANCER, COMPRISING SAME” (EWHA UNIVERSITY - INDUSTRY COLLABORATION FOUNDATION, priority 2022, published 2026).

Tests used:
[1] = tested on: NCI-N87 (HER2-positive gastric cancer cell line); assay: antiproliferative effect, NCI-N87; assay type: cell-based; conditions: Homo sapiens, NCI-N87; 72 hours; HER2-positive
Description: (§1) The antiproliferative effects were measured after treating Compounds 1 to 22 for 72 hours on HCT15 (HER2-positive colorectal cancer cell line), NCI-N87 (HER2-positive gastric cancer cell line), T47D (HER2-negative breast cancer cell line), and HeLa (HER2-negative cervical cancer cell line). As a result, strong antiproliferative effects were generally observed in the NCI-N87 cell line (Table 2).
(§2) The antiproliferative effects of the candidate compound, resulting from HER2 inhibition, were evaluated. Specifically, to confirm the anticancer effects of the candidate compound, cancer cells were seeded at a density of 10^4 cells/well in a 96-well cell culture plate for 20 hours. The cells were starved in serum-free media for 4 hours, followed by replacement with media containing the compound at specified concentrations. The cells were then incubated for 72 hours under conditions of 5% CO2 at 37 °C. Cell viability was determined by adding 5 μL of EZ-CytoX to each well and measuring absorbance at 450 nm. The measurements were performed using an ELISA Microplate Reader (VersaMax, Molecular Devices).

[2] = target: T1, ELF3-MED23 protein-protein interaction (Homo sapiens, UniProt Q9ULK4); assay: SEAP reporter assay, ELF3-MED23 PPI inhibition (293T kidney cells); assay type: cell-based; conditions: 10 μM; for inhibition at 10 µM: HEK-293T
T1 construct: followed by the addition of either the candidate compound or MED23 protein constructs; endogenous in cells; host or cells: 293T kidney cells (MED23 endogenous; GAL4-ELF3 transfected)
T1 sequence (Q9ULK4 1-1368): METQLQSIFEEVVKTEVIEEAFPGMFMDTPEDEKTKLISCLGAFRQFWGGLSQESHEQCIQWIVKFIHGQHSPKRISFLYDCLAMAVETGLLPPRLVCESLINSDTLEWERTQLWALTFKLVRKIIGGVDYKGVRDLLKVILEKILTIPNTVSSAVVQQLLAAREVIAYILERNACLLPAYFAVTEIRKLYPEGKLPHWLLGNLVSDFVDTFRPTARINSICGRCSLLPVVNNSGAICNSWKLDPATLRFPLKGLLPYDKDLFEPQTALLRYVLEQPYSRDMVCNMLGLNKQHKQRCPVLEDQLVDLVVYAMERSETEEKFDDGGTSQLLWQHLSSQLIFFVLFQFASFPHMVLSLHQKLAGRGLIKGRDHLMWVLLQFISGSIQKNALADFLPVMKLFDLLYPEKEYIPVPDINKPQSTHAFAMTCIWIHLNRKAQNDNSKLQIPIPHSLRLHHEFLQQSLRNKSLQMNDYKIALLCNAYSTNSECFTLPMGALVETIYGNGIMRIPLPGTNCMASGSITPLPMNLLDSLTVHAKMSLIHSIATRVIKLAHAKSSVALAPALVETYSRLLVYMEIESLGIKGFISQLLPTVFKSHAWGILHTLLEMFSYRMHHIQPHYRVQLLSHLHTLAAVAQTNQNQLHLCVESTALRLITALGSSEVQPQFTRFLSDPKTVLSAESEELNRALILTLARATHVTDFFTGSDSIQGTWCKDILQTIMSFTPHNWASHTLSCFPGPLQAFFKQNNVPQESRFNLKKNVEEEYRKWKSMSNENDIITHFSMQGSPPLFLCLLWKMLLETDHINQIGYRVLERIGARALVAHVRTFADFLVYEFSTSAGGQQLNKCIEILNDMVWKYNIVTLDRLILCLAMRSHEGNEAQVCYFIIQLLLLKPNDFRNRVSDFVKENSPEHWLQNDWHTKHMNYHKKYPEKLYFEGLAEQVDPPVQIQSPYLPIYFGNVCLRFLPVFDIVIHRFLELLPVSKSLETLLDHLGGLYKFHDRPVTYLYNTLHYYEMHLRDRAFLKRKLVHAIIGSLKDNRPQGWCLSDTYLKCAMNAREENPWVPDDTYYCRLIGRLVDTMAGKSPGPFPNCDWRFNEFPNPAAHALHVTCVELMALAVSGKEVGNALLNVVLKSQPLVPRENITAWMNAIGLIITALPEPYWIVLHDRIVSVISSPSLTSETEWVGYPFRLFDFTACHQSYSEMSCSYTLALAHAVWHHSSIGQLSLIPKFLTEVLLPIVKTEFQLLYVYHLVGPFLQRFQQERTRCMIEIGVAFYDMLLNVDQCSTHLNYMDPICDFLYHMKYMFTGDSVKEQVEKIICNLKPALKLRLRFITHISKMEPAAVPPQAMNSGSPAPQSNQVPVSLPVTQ
Description: To verify whether the D400 and H449 residues play a critical role in the ELF3-MED23 protein-protein interaction, a SEAP assay was performed. Specifically, 293T kidney cells were seeded at a density of 5×10^3 cells/well in a 96-well microplate (SPL, Korea) and cultured overnight. Subsequently, the cells were co-transfected with 100 ng of each plasmid using transfection-optimized medium (Welgene, Korea). The plasmids used included the SEAP reporter gene (pG5IL2SX) and GAL4-ELF3 expression vector (pBJ GAL4-ELF3). For transfection, the cells were incubated with WelFectQ (Welgene, Korea) for 3 hours, followed by the addition of either the candidate compound or MED23 protein constructs (pcDNA MED23^WT, K397A, D400A, H449G, and D400A/H449G). The treated cells were incubated for 12 hours. The candidate compound was added in an incubator at 5% CO2 and 37 °C, and the plate was incubated at 65 °C for 3 hours to inactivate all enzymes except SEAP (Secreted Alkaline Phosphatase). A mixture comprising 100 μL of substrate solution prepared with 1.19 μL of 0.1 M 4-methylumbelliferyl phosphate (Sigma, USA), 25 μL of inactivated medium, and 75 μL of double-distilled water was added, followed by the addition of 98.81 μL of 2 M diethanolamine (pH 10, Sigma, USA). The plate was incubated overnight at 37 °C. Subsequently, the fluorescence intensity was measured using a fluorometer (SPECTRAmax […], Molecular Devices, USA) at an excitation wavelength of 360 nm and an emission wavelength of 440 nm.
To further elaborate on the above findings, small molecule compounds that could affect the ELF3-MED23 PPI were designed and synthesized. Specifically, non-essential side chains were removed from gefitnib, and compounds were designed to include both hydrogen bond donors and acceptors for the D400 and H449 residues of MED23, respectively (FIG. 4A). Specifically, chalcones and pyrazolines were selected as core scaffolds, and 25 compounds (11 chalcones and 14 pyrazoline-based compounds) were prepared. The ELF3-MED23 PPI inhibitory activity of all prepared compounds was measured using a SEAP assay.

[3] = tested on: HeLa (HER2-negative cervical cancer cell line); assay: antiproliferative effect, HeLa; assay type: cell-based; conditions: Homo sapiens, 72 hours
Description: as §1, §2

[4] = target: MED23 wild-type (FLAG-tagged) (Homo sapiens, UniProt Q9ULK4); assay: LC-MS/MS protein-small molecule interaction, wild-type MED23; assay type: binding; conditions: internal standard
Description: HEK293 cells were seeded in a […] and incubated until they reached 70-80% confluency. The cells were transfected with p3Xflag-myc-CMV26-MED23^WT and p3Xflag-myc-CMV26-MED23^D400A/H449G plasmids for 24 hours, followed by lysis to obtain protein extracts. To isolate the candidate compound (YK1) bound to MED23, total lysates were incubated with YK1 for 4 hours and subsequently subjected to pulldown using FLAG-agarose beads (Sigma Aldrich, USA). The precipitated beads were washed at least three times to completely remove unbound compounds. To separate the candidate compound from the precipitated MED23, 50 μL of the sample was extracted with 1 mL of acetonitrile and centrifuged at 13,000 rpm at 4 °C for 10 minutes. The supernatant (1,000 μL) from each sample was transferred to a new tube and dried under nitrogen gas at 37 °C. For YK1 analysis, the residue was dissolved in 50 μL of ACN and vortexed for 10 minutes. […] The mixture was then extracted with 450 μL of ACN by ultrasonic treatment and vortex mixing. The candidate compound bound to MED23 was finally analyzed using an Agilent 6460 triple quadrupole mass spectrometer (Agilent Technologies, USA).

[5] = tested on: HCT15 (HER2-positive colorectal cancer cell line); assay: antiproliferative effect, HCT15; assay type: cell-based; conditions: Homo sapiens, HCT-15, 72 hours
Description: as §1, §2

[6] = tested on: T47D (HER2-negative breast cancer cell line); assay: antiproliferative effect, T47D; assay type: cell-based; conditions: Homo sapiens, 72 hours
Description: as §1, §2

[7] = target: T1, ELF3-MED23 protein-protein interaction; conditions: cited from earlier work; for PPI inhibitory activity relative to gefitinib: ELF3-MED23 PPI
[8] = target: T2, (His)6-MED23391-582 / FITC-ELF3129-145 peptide (Homo sapiens, UniProt Q9ULK4); assay: fluorescence polarization displacement assay; assay type: binding; conditions: 80 nM (His)6-MED23391-582, 10 nM FITC-ELF3129-145; Cheng-Prusoff; read-out: PPI inhibitory activity calculated based on Ki value
T2 construct: 391-582 and fluorescein isothiocyanate (FITC)-labeled
T2 sequence (Q9ULK4 391-582 limits assumed): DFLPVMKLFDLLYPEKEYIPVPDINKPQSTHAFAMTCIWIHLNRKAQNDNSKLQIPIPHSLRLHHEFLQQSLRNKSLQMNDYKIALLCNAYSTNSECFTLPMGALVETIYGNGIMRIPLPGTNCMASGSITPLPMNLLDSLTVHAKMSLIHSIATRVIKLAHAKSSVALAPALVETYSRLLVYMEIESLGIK
Description: The samples, adjusted to a final volume of 50 μL, were incubated at room temperature for 30 minutes. Kd values were calculated using a least-squares non-linear fit method with Prism 6.0 software (GraphPad Software, USA). FP signals were measured in millipolarization (mP) units using an Infinite F200 PRO microplate reader (Tecan Group Ltd., Switzerland) at an excitation wavelength of 485 nm and an emission wavelength of 535 nm. For displacement analysis, graded concentrations of YK1 and unlabeled ELF3137-144 peptides were mixed with 80 nM (His) 6-MED23391-582 and 10 nM FITC-ELF3129-145.
The effect of compound YK1 was confirmed by measuring the reduction in FP signals, using unlabeled peptides as a positive control. The IC50 of each compound was determined by fitting the data to a four-parameter logistic equation using the Table Curve 2D program (SPSS Inc.). The Ki value was calculated using the Cheng-Prusoff equation (Ki=IC50/1+([Ligand]/Kd))

Compound | IC50 [1] | inhibition at 10 µM [2] | IC50 [3] | binding affinity to MED23 relative to candidate compound [4] | IC50 [5] | IC50 [6] | SEAP assay Inhibition (%) [2] | Ki [8] | known ELF3-MED23 PPI inhibition [7] | PPI inhibitory activity relative to gefitinib [7]
CC(=O)N1N=C(c2ccccc2O)CC1c1cccs1 (centres unmarked) [Compound 21, 1-[3-(2-Hydroxyphenyl)-5-thiophen-2-yl-4,5-dihydropyrazol-1-yl]-ethanone] | > 50 µM | 57% | > 50 µM |  | > 50 µM | > 50 µM |  |  |  | 
COc1ccc(C2CC(c3ccccc3O)=NN2C(C)=O)cc1 (centres unmarked) [Compound 22, 1-[3-(2-Hydroxyphenyl)-5-(4-methoxyphenyl)-4,5-dihydropyrazol-1-yl]-ethanone] | > 50 µM | 63% | > 50 µM |  | 40.3 ± 0.51 µM | > 50 µM |  |  |  | 
COc1cc2ncnc(Nc3ccc(F)c(Cl)c3)c2cc1OCCCN1CCOCC1 [Gefitinib, gefitinib, reference compound] |  | 85% |  |  |  |  |  |  | inhibit ELF3-MED23 protein-protein interaction (PPI) | 
CC(C)N(CC(O)COc1cccc2[nH]ccc12)C(=O)N1CCC(C2CCN(C(=O)C34CC5CC(CC(C5)C3)C4)CC2)CC1 (centres unmarked) [adamanolol] |  |  |  |  |  |  |  |  | inhibit ELF3-MED23 protein-protein interaction (PPI) | 
C=CC(=O)Nc1cc2c(Nc3ccc(F)c(Cl)c3)ncnc2cc1OCCCN1CCOCC1 [canertinib] |  |  |  |  |  |  |  |  | inhibit ELF3-MED23 protein-protein interaction (PPI) | superior PPI inhibitory activity compared to gefitinib
Cc1ccc(S(=O)(=O)n2ccc3c(OCC(O)CN(CCCCCN)C(=O)N4CCC(C5CCN(C(=O)C67CC8CC(CC(C8)C6)C7)CC5)CC4)cccc32)cc1 (centres unmarked) [wrenchnolol] |  |  |  |  |  |  |  |  | inhibit ELF3-MED23 protein-protein interaction (PPI) | 
ELF3137-144: ELF3137-144 peptide (8 a.a.), amino acids 137-144 of ELF3 (SWIIELLE; UniProt P78545 137-144, looked up, fragment) [reference compound] |  |  |  |  |  |  | 53% | 0.78 ± 0.05 µM |  | superior PPI inhibitory activity compared to gefitinib

Now from value to compound, other results behind:

IC50 [1] | inhibition at 10 µM [2] | IC50 [3] | binding affinity to MED23 relative to candidate compound [4] | IC50 [5] | IC50 [6] | SEAP assay Inhibition (%) [2] | Ki [8] | Compound | known ELF3-MED23 PPI inhibition [7] | PPI inhibitory activity relative to gefitinib [7]
> 50 µM | 0% | 6.69 ± 0.4 µM | lower binding affinity to MED23 | 19.7 ± 0.05 µM | 29.28 ± 0.27 µM |  |  | COc1ccc(C2CC(c3ccccc3O)=NN2C(C)=O)c2ccccc12 (centres unmarked) [Compound 18, 1-[3-(2-Hydroxyphenyl)-5-(4-methoxynaphthalen-1-yl)-4,5-dihydropyrazol-1-yl]-ethanone] |  | 
> 50 µM | 39% | > 50 µM |  | > 50 µM | > 50 µM |  |  | CC(=O)N1N=C(c2ccccc2O)CC1c1ccc(O)cc1 (centres unmarked) [Compound 19, 1-[5-(4-Hydroxyphenyl)-3-(2-hydroxyphenyl)-4,5-dihydropyrazol-1-yl]-ethanone] |  | 
> 50 µM | 45% | > 50 µM |  | > 50 µM | > 50 µM |  |  | CC(=O)N1N=C(c2ccccc2O)CC1c1ccc(Cl)cc1 (centres unmarked) [Compound 20, 1-[5-(4-Chlorophenyl)-3-(2-hydroxyphenyl)-4,5-dihydropyrazol-1-yl]-ethanone] |  | 
